The NIST ThermoML archive (doi:10.1021/je500116z)
± gives the expanded uncertainty stated by the source.

Details: Liquid, Ebulliometric method (Recirculating still)

| SMILES | vapor or sublimation pressure (288.15 K) [kPa] | vapor or sublimation pressure (298.15 K) [kPa] | vapor or sublimation pressure (308.15 K) [kPa] |
| --- | --- | --- | --- |
| CC(C)CCl [1-chloro-2-methylpropane] | 13 ± 0.097 | 20.35 ± 0.13 | 30.45 ± 0.17 |
| CC(C)(C)Cl [2-chloro-2-methylpropane] | 26.42 ± 0.16 | 40.13 ± 0.22 | 59.52 ± 0.3 |
| CCC(C)Cl (configuration not stated) [2-chlorobutane] | 13.36 ± 0.099 | 20.91 ± 0.13 | 31.55 ± 0.18 |
| CCCCCC [hexane] | 12.89 ± 0.097 | 20.22 ± 0.13 | 30.7 ± 0.17 |
